The text below walks through data of ChEMBL document CHEMBL3399956, “Cell-based biological evaluations of 5-(3-bromo-4-phenethoxybenzylidene)thiazolidine-2,4-dione as promising wound healing agent” (Bioorg Med Chem, 2015).

The IC50 is the concentration that gives 50% inhibition.

In assay [1] the target is T1, 15-hydroxyprostaglandin dehydrogenase [NAD(+)] (Homo sapiens, UniProt P15428).
T1 sequence (P15428 whole entry): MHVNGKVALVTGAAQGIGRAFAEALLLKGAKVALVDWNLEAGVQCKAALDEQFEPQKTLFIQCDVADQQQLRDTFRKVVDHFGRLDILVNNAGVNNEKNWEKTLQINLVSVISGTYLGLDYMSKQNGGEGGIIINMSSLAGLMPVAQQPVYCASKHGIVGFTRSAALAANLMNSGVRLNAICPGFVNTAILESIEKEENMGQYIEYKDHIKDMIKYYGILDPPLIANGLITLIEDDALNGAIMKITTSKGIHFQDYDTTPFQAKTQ
The assay is described as follows: Inhibition of 15-PGDH (unknown origin) by fluorescence spectrophotometry.

The target in assay [2] is T2, 15-hydroxyprostaglandin dehydrogenase [NAD(+)] (Homo sapiens) (UniProt P15428).
T2 sequence (whole entry): T1 sequence (P15428 whole entry)
The assay is described as follows: Inhibition of 15-PGDH in human A549 cells assessed as increase in PGE2 level after 12 hrs by immunoassay. In kind it is cell-based.

Assay [3] has as its target T2, 15-hydroxyprostaglandin dehydrogenase [NAD(+)] (Homo sapiens). In words: Inhibition of 15-PGDH in human A549 cells assessed as increase in PGE2 level at 5 uM after 12 hrs by immunoassay relative to control. In kind it is cell-based.
Assay [4] relates to HaCaT. In words: In vitro wound healing effect on human HaCaT cells assessed as improvement wound healing at 5 uM after 48 hrs. In kind it is functional, cell-based.
Assay [5] deals with HaCaT. In words: In vitro wound healing effect on human HaCaT cells assessed as wound healing at 5 uM after 48 hrs in presence of 15-PGDH. In kind it is functional, cell-based.
Assay [6] relates to HS27. The assay is described as follows: In vitro wound healing effect on human HS27 cells assessed as wound healing at 5 uM after 48 hrs. The class given is functional, cell-based.
Assay [7] has as its system HaCaT. The assay is described as follows: Induction of SCL expression in human HaCaT cells at 5 uM by qRT-PCR analysis relative to control. In kind it is functional. For orientation: Real-time PCR tracks product formation cycle by cycle.
Assay [8] relates to HS27. In words: Induction of SCL expression in human HS27 cells at 5 uM by qRT-PCR analysis. The class given is functional, cell-based.
Assay [9] deals with HS27. In words: Induction of LMO2 expression in human HS27 cells at 5 uM by qRT-PCR analysis. In kind it is functional, cell-based.
In assay [10] the test system is HS27. In words: Induction of GATA2 expression in human HS27 cells at 5 uM by qRT-PCR analysis. In kind it is functional, cell-based.
Assay [11] relates to HS27. The assay is described as follows: Induction of RUNX1 expression in human HS27 cells at 5 uM by qRT-PCR analysis. The class given is functional, cell-based.
In assay [12] the test system is HS27. The assay is described as follows: Induction of KDR expression in human HS27 cells at 5 uM by qRT-PCR analysis. In kind it is functional, cell-based.
In assay [13] the test system is HS27. In words: Induction of C-MYB expression in human HS27 cells at 5 uM by qRT-PCR analysis. In kind it is functional, cell-based.

Calls of active or inactive are those of the source. The calls are words filed in the database; no cut-off is given here.

Turning to `O=C1NC(=O)/C(=C/c2ccc(OCCc3ccccc3)c(Br)c2)S1`, the IC50 in [1] turned out to be 4 nM. In addition, the Activity entry in [2] was “Dose-dependent effect”; in assay [3], 451 pg/mL. Moreover, the fold change (FC) in assay [3] stood at 7; in the assay with HaCaT [7], 2. Further, the result in the assay on HaCaT [4] was Active. Also, the inhibition entry in the assay on HaCaT [5] and with HS27 [6] was “inactive” in each case. The result with HS27 [8], in the assay with HS27 [9], in the assay on HS27 [10], with HS27 [11], in the assay on HS27 [12] and in the assay with HS27 [13] was inactive.
Take `COc1ccc2c(c1)c(CC(=O)O)c(C)n2C(=O)c1ccc(Cl)cc1`: the outcome in the assay with HaCaT [7] was inactive.
With `O=C1NC(=O)/C(=C/c2ccc(OCCCc3ccccc3)c(Br)c2)S1`, in assay [3], the outcome was Active.
